Measured values from ChEMBL document CHEMBL6083230, “Synthesis and biological evaluation of ferrostatin-based diamide derivatives as new ferroptosis inhibitors” (Bioorg Med Chem Lett, 2024).
≈ marks a conversion by molar mass, not a printed value. Calls of active or inactive are those of the source. The calls are words filed in the database; no cut-off is given here.

Assays:
[1] = tested on: HUVEC; assay: Anti-ferroptosis activity against […]-induced ferroptosis in HUVEC cells assessed as increase in cell viability at 10 uM incubated for 24 hrs by SRB assay; assay type: functional, cell-based; settings: Homo sapiens
[2] = tested on: HUVEC; assay: Anti-ferroptosis activity against […]-induced ferroptosis in HUVEC cells assessed as increase in cell viability incubated for 24 hrs by SRB assay; assay type: functional, cell-based; settings: Homo sapiens
[3] = Kinetic solubility of compound; assay type: physicochemical; settings: read-out: Kinetic_solubility
[4] = Metabolic stability in human liver microsomes assessed as half-life; assay type: ADME, Microsome
[5] = Metabolic stability in mouse liver microsomes assessed as half-life; assay type: ADME, Microsome
[6] = Stability in mouse plasma assessed as parent compound remaining measured after 6 hrs; assay type: ADME, cell-free; settings: read-out: Stability
[7] = tested on: HUVEC; assay: Anti-ferroptosis activity against erastin-induced ferroptosis in HUVEC cells assessed as decrease in free ferrous ion level at 10 uM incubated for 24 hrs by Ferro orange fluorescent probe based assay; assay type: functional, cell-based; settings: Homo sapiens
[8] = tested on: HUVEC; assay: Anti-ferroptosis activity against erastin-induced ferroptosis in HUVEC cells assessed as decrease in intracellular lipid ROS level at 10 uM incubated for 24 hrs by BODIPY 581/591 dye based assay; assay type: functional, cell-based; settings: Homo sapiens
[9] = tested on: HUVEC; assay: Anti-ferroptosis activity against erastin-induced ferroptosis in HUVEC cells assessed as reduction in accumulation of lipid peroxidation at 10 uM incubated for 24 hrs by LPO assay; assay type: functional, cell-based; settings: Homo sapiens
[10] = tested on: HUVEC; assay: Anti-ferroptosis activity against erastin-induced ferroptosis in HUVEC cells assessed as reduction in malondialdehyde content at 10 uM incubated for 24 hrs by lipid peroxidation MDA assay; assay type: functional, cell-based; settings: Homo sapiens
[11] = tested on: HUVEC; assay: Anti-ferroptosis activity against erastin-induced ferroptosis in HUVEC cells assessed as upregulation of intracellular GSH level at 10 uM incubated for 24 hrs; assay type: functional, cell-based; settings: Homo sapiens
[12] = tested on: HUVEC; assay: Anti-ferroptosis activity against erastin-induced ferroptosis in HUVEC cells assessed as upregulation of intracellular GPX4 level at 10 uM incubated for 24 hrs by Western blot analysis; assay type: functional, cell-based; settings: Homo sapiens

| Structure (SMILES) | Activity [1] | EC50 [2] [nM] | other results |
| --- | --- | --- | --- |
| CCNC(=O)c1ccc(NC2CCCCC2)c(NC(=O)/C=C/c2ccccc2)c1 | Active; Compound Exhibited Comparable Activity To Ferrostatin-1 | 900 |  |
| CCNC(=O)c1ccc(NC2CCCCC2)c(NCc2ccccc2)c1 | Active; Compound Exhibited Comparable Activity To Ferrostatin-1 | 6200 | solubility kinetic [3]: 50 µM (≈ 17.6 µg/mL); half-life [4]: 38.9 min; half-life [5]: 19.6 min; remaining at 6 h [6]: 0% |
| CCNC(=O)c1ccc(NC2CCCCC2)c(NC(=O)Cc2cc(Br)cc(Br)c2)c1 | Active |  |  |
| CCNC(=O)c1ccc(NC2CCCCC2)c(NC(=O)Cc2cccc(OC)c2)c1 | Active |  |  |
| CCNC(=O)c1ccc(NC2CCCCC2)c(NC(=O)/C=C/c2cccc(OC)c2OC)c1 | Active |  |  |
| CCNC(=O)c1ccc(NC2CCCCC2)c(NC(=O)Cc2ccc(F)c(Br)c2)c1 | Active |  |  |
| CCNC(=O)c1ccc(NC2CCCCC2)c(NC(=O)C(c2ccccc2)c2ccccc2)c1 | Active; Compound Exhibited Comparable Activity To Ferrostatin-1 | 1000 |  |
| CCNC(=O)c1ccc(NC2CCCCC2)c(NC(=O)Cc2ccc(OC)c(Br)c2)c1 | inactive |  |  |
| CCNC(=O)c1ccc(NC2CCCCC2)c(NC(=O)Cc2cc(OC)c(OC)c(OC)c2)c1 | inactive |  |  |
| CCNC(=O)c1ccc(NC2CCCCC2)c(NC(=O)Cc2ccc(C)cc2)c1 | inactive |  |  |
| CCNC(=O)c1ccc(NC2CCCCC2)c(NC(=O)/C=C/c2cccc(Br)c2)c1 | Active |  |  |
| CCNC(=O)c1ccc(NC2CCCCC2)c(NC(=O)Cc2ccc(OC)cc2)c1 | Active; Compound Exhibited Comparable Activity To Ferrostatin-1 | 980 |  |
| CCNC(=O)c1ccc(NC2CCCCC2)c(NC(=O)Cc2ccc(F)cc2)c1 | Active |  |  |
| CCNC(=O)c1ccc(NC2CCCCC2)c(NC(=O)/C=C/c2ccccc2OC)c1 | Active; Compound Exhibited Comparable Activity To Ferrostatin-1 | 1100 |  |
| CCOC(=O)c1ccc(NC2CCCCC2)c(N)c1 | Active |  | Activity [7]: Active; Activity [8]: Active; Activity [9]: Active; Activity [10]: Active; Activity [11]: Active; Activity [12]: Active; solubility kinetic [3]: > 200 µM; half-life [4]: 16.8 min; half-life [5]: 2.7 min; remaining at 6 h [6]: 18% |
| CCNC(=O)c1ccc(NC2CCCCC2)c(NC(=O)Cc2cc(Br)ccc2F)c1 | Active |  |  |
| CCNC(=O)c1ccc(NC2CCCCC2)c(NC(=O)Cc2cc(F)c(F)cc2Br)c1 | Active; Compound Exhibited Comparable Activity To Ferrostatin-1 | 810 |  |
| CCNC(=O)c1ccc(NC2CCCCC2)c(NC(=O)Cc2cc(Br)ccc2Br)c1 | inactive |  |  |
| CCNC(=O)c1ccc(NC2CCCCC2)c(NC(=O)Cc2ccc(OC)c(OC)c2)c1 | Active |  |  |
| CCNC(=O)c1ccc(NC2CCCCC2)c(NC(=O)/C=C/c2cc(OC)c(OC)cc2OC)c1 | Active; Compound Exhibited Comparable Activity To Ferrostatin-1; Most Significant Efficacy Observed | 580 | Activity [7]: Active; Higher Effectiveness Compared To Ferrostatin-1; Activity [8]: Active; Activity [9]: Active; Activity [10]: Active; Activity [11]: Active; Activity [12]: Active; solubility kinetic [3]: 33.3 µM (≈ 16 µg/mL); half-life [4]: 62.7 min; half-life [5]: 31.4 min; remaining at 6 h [6]: 48% |
| CCNC(=O)c1ccc(NC2CCCCC2)c(NC(=O)/C=C/c2ccc(O)c(OC)c2)c1 | Active |  |  |
| CCNC(=O)c1ccc(NC2CCCCC2)c(NC(=O)CCc2ccc(OC)cc2)c1 | Active |  |  |
| CCNC(=O)c1ccc(NC2CCCCC2)c(NC(=O)Cc2cccc(Br)c2)c1 | inactive |  |  |
